Measurements taken from patent publication US12435051B2, “Dual modulator of mGluR5 and 5-HT2A receptor, and use thereof” (Vivozon Inc., priority 2020, dated 2025).
Where two headings read alike, the source gives them in different places.

Columns and labels:
human 5-HT2AR = target: T1, human 5-HT2AR (Homo sapiens, UniProt P28223); assay: HTRF-based IP1 accumulation assay (5-HT2AR antagonistic effect); type: cell-based; details: HEK293 cells overexpressing human 5-HT2AR; serotonin at EC80
T1 construct: expressed in transfected cells; host or cells: HEK293
T1 sequence (P28223 whole entry): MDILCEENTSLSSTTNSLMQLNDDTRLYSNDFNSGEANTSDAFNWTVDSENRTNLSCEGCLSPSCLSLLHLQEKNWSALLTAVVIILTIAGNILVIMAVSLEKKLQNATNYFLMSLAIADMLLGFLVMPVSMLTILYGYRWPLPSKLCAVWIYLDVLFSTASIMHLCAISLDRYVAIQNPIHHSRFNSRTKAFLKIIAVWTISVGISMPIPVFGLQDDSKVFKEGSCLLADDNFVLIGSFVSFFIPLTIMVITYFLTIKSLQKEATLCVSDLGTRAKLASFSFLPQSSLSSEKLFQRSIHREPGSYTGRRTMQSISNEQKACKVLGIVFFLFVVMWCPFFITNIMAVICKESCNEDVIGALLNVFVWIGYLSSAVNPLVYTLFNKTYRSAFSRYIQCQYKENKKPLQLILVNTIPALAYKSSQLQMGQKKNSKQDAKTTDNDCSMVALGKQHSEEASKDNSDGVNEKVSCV
Experimental: The 5-HT2AR antagonistic effect of the test compounds was confirmed by measuring the production amount of IP1 using the HEK293 cell line permanently overexpressing the human 5-HT2AR. The test compounds were dissolved in 100% DMSO to a final concentration of 10 mM. The starting concentration of 10 μM was prepared from the stock solution, followed by serial dilutions to prepare working solutions in a buffer containing lithium chloride (LiCl). The cells and compounds prepared in the test buffer were placed in a 96-well plate and incubated at room temperature for 10 minutes. Serotonin of EC80 concentration was added, followed by incubation at 37° C. for 30 minutes in a light-shielding state. To measure IP1 accumulation in cells, JP1-d2 acceptor and IP1-Cryptate donor-which are HTRF-based substances for fluorescence signals-were added and incubated for 1 hour at room temperature in a light-shielded state. The fluorescent emission signals of acceptor and donor were detected, and HTRF ratio values were substracted by mean value of serotonin control. The percentage of activation was calculated by normalization of the serotonin control (0%) and IP1 control (100%). The IC50 values of the test compounds are represented in Table 1. (+: 1,000-2,000 nM, ++: 500-1,000 nM, +++: 100-500 nM, ++++: less than 100 nM).

mGluR5 = target: T2, mGluR5 (Homo sapiens, UniProt P41594); assay: Fluorescence-based Ca2+ mobilization assay; type: cell-based; details: HEK293 cells overexpressing mGluR5; L-glutamate at EC80
T2 construct: expressed in transfected cells; host or cells: HEK293
T2 sequence (P41594 21-1212): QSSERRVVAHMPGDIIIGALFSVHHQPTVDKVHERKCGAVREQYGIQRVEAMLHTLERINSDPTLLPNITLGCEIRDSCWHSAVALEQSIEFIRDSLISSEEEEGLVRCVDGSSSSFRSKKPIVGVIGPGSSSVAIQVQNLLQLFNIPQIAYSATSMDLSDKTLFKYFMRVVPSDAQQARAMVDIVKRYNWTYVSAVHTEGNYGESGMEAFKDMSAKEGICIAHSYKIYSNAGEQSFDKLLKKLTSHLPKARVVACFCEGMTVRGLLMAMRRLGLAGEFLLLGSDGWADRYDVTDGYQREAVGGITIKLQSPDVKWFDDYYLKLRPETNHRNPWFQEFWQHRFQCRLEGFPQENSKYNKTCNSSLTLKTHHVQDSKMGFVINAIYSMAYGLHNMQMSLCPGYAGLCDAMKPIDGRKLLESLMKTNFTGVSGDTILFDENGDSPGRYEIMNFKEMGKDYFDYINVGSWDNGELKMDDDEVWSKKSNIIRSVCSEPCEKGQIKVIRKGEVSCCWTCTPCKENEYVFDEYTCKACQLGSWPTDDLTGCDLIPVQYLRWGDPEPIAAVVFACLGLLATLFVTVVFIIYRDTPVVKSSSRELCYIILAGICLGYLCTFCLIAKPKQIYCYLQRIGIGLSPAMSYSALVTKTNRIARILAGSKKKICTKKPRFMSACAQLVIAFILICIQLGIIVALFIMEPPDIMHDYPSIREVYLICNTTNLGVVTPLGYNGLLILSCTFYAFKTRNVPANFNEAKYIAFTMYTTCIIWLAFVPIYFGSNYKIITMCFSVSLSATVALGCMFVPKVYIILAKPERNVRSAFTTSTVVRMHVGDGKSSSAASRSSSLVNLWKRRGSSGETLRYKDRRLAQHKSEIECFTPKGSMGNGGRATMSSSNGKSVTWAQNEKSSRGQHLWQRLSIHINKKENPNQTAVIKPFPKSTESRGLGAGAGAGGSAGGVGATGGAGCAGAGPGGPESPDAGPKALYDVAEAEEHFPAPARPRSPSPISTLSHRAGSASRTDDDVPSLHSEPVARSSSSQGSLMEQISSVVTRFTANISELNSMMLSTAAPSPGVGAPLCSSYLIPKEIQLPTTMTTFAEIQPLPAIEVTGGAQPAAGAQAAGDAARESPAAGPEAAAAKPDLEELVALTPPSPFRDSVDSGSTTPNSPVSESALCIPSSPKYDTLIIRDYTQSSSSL
Experimental: In order to measure the activity on the mGluR5, an experiment was carried out to check the change in the intracellular Ca^2+ level using the HEK293 cell line permanently overexpressing the mGluR5. The cells in the cell culture medium were aliquoted into a 384-well plate coated with poly-D-lysine and cultured in a 37° C. incubator supplied with 5% CO2. The next day, the medium was removed and a dye loading buffer—in which a reagent capable of measuring Ca^2+ was dissolved—was added, and then incubated at 37° C. for 60 minutes. The test compounds were dissolved in 100% DMSO at a final concentration of 10 mM to make a stock solution. The starting concentration of […] was prepared from the stock solution, followed by serial dilutions to prepare working solutions (test compound working solutions). The test compound working solutions were added to the cells that were incubated in the dye loading buffer, which were maintained for 30 minutes at room temperature in a light-shielding state before measurement. The Ca^2+ level change induced by L-glutamate at EC80 concentration was measured for 2 minutes using FLIPR Tetra (MDS Analytical Technologies). The fluorescent Ca^2+ signal values in the presence of the test compounds were normalized to the fluorescent signal elicited by […] concentration of L-glutamate as 100% and that elicited by vehicle as 0% to estimate % inhibition of the test compounds. The efficacy of the test compounds was calculated as IC50 values and represented in Table 1. (+: 1,000-2,000 nM, ++: 500-1,000 nM, +++: 100-500 nM, ++++: less than 100 nM).

[1] = system: physical (tactile) allodynia in spinal nerve ligation model; assay: Analgesic efficacy experiment using animal model (Chung model, spinal nerve ligation); type: in vivo, Sprague-Dawley rats; details: rat, oral; for inhibition in vivo at 25 mg/kg: 25 mpk; for inhibition in vivo at 100 mg/kg: 100 mpk
Experimental: The Chung model (spinal nerve ligation model) is a representative animal model to study neuropathic pain and is widely accepted as a gold standard for an animal pain model by global pharmaceutical companies around the world.
In this experiment, male Sprague-Dawley rats (100-120 g) purchased from Koatech (Pyeongtaek-si, Gyeonggi-do) were used. Rats were kept in a room maintained at constant temperature and humidity with a 12 hour light-dark cycle. Rats were allowed to eat and drink freely during the experiment.
For the Chung surgery, rats were anesthetized by isoflurane inhalation and the left lumbar nerves L5 and L6 were tightly tied with a suture thread (6-0 silk thread) at the end of the dorsal ganglion and at a front of an entrance to the sciatic nerve according to the article (Kim and Chung (1992), Pain 50(3):355-63). After suturing the incision, the rats were recovered for 2 weeks in the controlled maintenance room to induce physical allodynia in the left hind paw of the rat. To measure physical (tactile) allodynia, the rats were placed in a cage with a wire mesh on the bottom. Stimuli of increasing intensity (using the von Frey filaments in a range of 0.41 to 15.8 g) were placed on the plantar surface on the side of the nerve injury. The stimulus intensity at which the pain response (abrupt lifting, licking or sucking of the foot) was induced was recorded while applying gradual increment of stimuli. As described in the study of Chaplan et al. (1994) (Chaplan et al. (1994) J. Neurosci. Methods 53(1):55-63), the paw withdrawal threshold (PWT) was determined by increasing or decreasing continuous stimulus intensity, and the result was analyzed by applying Dixon's up-down method. Only rats showing no behavior dysfunction (e.g., feet dragging or dropping) were selected and included in the study, and the PWT of the rats used was 3.16 g or less.
After measuring the degree of basic reaction before drug injection, each compound and solvent were injected by oral administration (12.5-100 mg/kg), and the measurement was repeated at regular time intervals (60 and 120 minutes) after the drug was injected.
The experimenter conducted the PWT measurement in a blind condition not knowing which rat was administered with which drug. The control group was administered with gabapentin (65 mg/kg, intraperitoneal administration), and was randomly mixed during the measurement. Statistical analysis was performed on the measured pain response threshold by calculating the reversal rate (% reversal) from pain in Equation 1 below. […] Pain reversal rate (% reversal)=[(PWT after drug administration)−(PWT before drug administration)]*100/[(15 g, Estimated PWT in normal animals)−(PWT before drug administration)] [Equation 1]
The PWT used in this time is a value obtained by multiplying the gram, the unit of “force” measure, by 10,000, and taking the logarithm, which is a method generally used in academia.
Each experiment consisted of the compound group, the solvent group of the compound and the gabapentin (GBP) group as positive control group. As solvent of the compound, 0.5% HPMC (hydroxypropylmethyl cellulose) was used.

[2] = 1 h, read-out: % reversal (1 h)
[3] = 2 h, read-out: % reversal (2 h)

| SMILES | IC50 (human 5-HT2AR) [µM] | IC50 (mGluR5) [µM] | inhibition in vivo at 25 mg/kg [1, 2] [%] | inhibition in vivo at 25 mg/kg [1, 3] [%] | inhibition in vivo at 100 mg/kg [1, 2] [%] | inhibition in vivo at 100 mg/kg [1, 3] [%] |
| --- | --- | --- | --- | --- | --- | --- |
| CC(C)NC1(CNC(=O)c2ccc(C#Cc3ccccc3)cc2)CCCCC1 [Example 55, N-((1-(isopropylamino)cyclohexyl)methyl)-4-(phenylethynyl)benzamide] | < 0.1 | 1 to 2 | – | – | 68.9 | 80.2 |
| NC(=O)CC1(CNC(=O)c2ccc(C#Cc3ccccc3F)cc2)CCOCC1 [Example 78, N-((4-(2-amino-2-oxoethyl)tetrahydro-2H-pyran-4-yl)methyl)-4-((2-fluorophenyl)ethynyl)benzamide] | 1 to 2 | 0.1 to 0.5 | – | – | – | – |
| O=C(NC[C@H]1CCOC1)c1ccc(C#Cc2ccc(F)cc2)cc1 [Example 101, (R)-4-((4-fluorophenyl)ethynyl)-N-((tetrahydrofuran-3-yl)methyl)benzamide] | 0.1 to 0.5 | < 0.1 | – | – | – | – |
| CC(C)NC1(CNC(=O)c2ccc(C#Cc3ccccc3F)cc2)CCCC1 [Example 30, 4-((2-fluorophenyl)ethynyl)-N-((1-(isopropylamino)cyclopentyl)methyl)benzamide] | < 0.1 | 0.5 to 1 | – | – | – | – |
| O=C(NCC1CCC(F)(F)CC1)c1ccc(C#Cc2ccc(F)cc2F)cc1 [Example 121, N-((4,4-difluorocyclohexyl)methyl)-4-((2,4-difluorophenyl)ethynyl)benzamide] | 0.5 to 1 | < 0.1 | – | – | – | – |
| O=C(O)CCC1(CNC(=O)c2ccc(C#Cc3ccccc3F)cc2)CCCCC1 [Example 61, 3-(1-((4-((2-fluorophenyl)ethynyl)benzamido)methyl)cyclohexyl)propanoic acid] | 0.5 to 1 | 1 to 2 | – | – | – | – |
| O=C(NCC1(NC2CC2)CCCCCC1)c1ccc(C#Cc2ccc(F)c(F)c2)cc1 [Example 18, N-((1-(cyclopropylamino)cycloheptyl)methyl)-4-((3,4-difluorophenyl)ethynyl)benzamide] | 0.5 to 1 | 1 to 2 | – | – | – | – |
| CC1(CNC(=O)c2ccc(C#Cc3ccccc3F)cc2)CCC1 [Example 105, 4-((2-fluorophenyl)ethynyl)-N-((1-methylcyclobutyl)methyl)benzamide] | 0.5 to 1 | < 0.1 | – | – | – | – |
| O=C(NCC1CCCCO1)c1ccc(C#Cc2ccccc2F)cc1 (stereo not drawn) [Example 54, 4-((2-fluorophenyl)ethynyl)-N-((tetrahydro-2H-pyran-2-yl)methyl)benzamide] | 0.1 to 0.5 | < 0.1 | – | – | – | – |

Further lines, with some results ahead:

| IC50 (human 5-HT2AR) [µM] | IC50 (mGluR5) [µM] | SMILES | inhibition in vivo at 25 mg/kg [1, 2] [%] | inhibition in vivo at 25 mg/kg [1, 3] [%] | inhibition in vivo at 100 mg/kg [1, 2] [%] | inhibition in vivo at 100 mg/kg [1, 3] [%] |
| --- | --- | --- | --- | --- | --- | --- |
| < 0.1 | 0.1 to 0.5 | CC(C)NC1(CNC(=O)c2ccc(C#Cc3ccccc3F)cc2)CCCCC1 [Example 25, 4-((2-fluorophenyl)ethynyl)-N-((1-(isopropylamino)cyclohexyl)methyl)benzamide] | 36.5 | 36.6 | – | – |
| 0.1 to 0.5 | 0.5 to 1 | CN(C)C(=O)CC1(CNC(=O)c2ccc(C#Cc3ccccc3F)cc2)CCCCC1 [Example 81, N-((1-(2-(dimethylamino)-2-oxoethyl)cyclohexyl)methyl)-4-((2-fluorophenyl)ethynyl)benzamide] | – | – | – | – |
| 1 to 2 | 1 to 2 | O=C(NCC1(F)COC1)c1ccc(C#Cc2ccccc2F)cc1 [Example 103, N-((3-fluorooxetan-3-yl)methyl)-4-((2-fluorophenyl)ethynyl)benzamide] | – | – | – | – |
| 0.5 to 1 | 0.1 to 0.5 | CC1(C)CC(CNC(=O)c2ccc(C#Cc3ccccc3F)cc2)CCO1 (stereo not drawn) [Example 67, N-((2,2-dimethyltetrahydro-2H-pyran-4-yl)methyl)-4-((2-fluorophenyl)ethynyl)benzamide] | – | – | – | – |
| 1 to 2 | 0.1 to 0.5 | O=C(NCC1CCOCC1)c1ccc(C#Cc2ccc(F)cc2)cc1 [Example 33, 4-((4-fluorophenyl)ethynyl)-N-((tetrahydro-2H-pyran-4-yl)methyl)benzamide] | – | – | – | – |
| 0.1 to 0.5 | 1 to 2 | O=C(NCC1(NC2CC2)CCC1)c1ccc(C#Cc2ccncc2)c(F)c1 [Example 7, N-((1-(cyclopropylamino)cyclobutyl)methyl)-3-fluoro-4-(pyridin-4-ylethynyl)benzamide] | – | – | – | – |
| 0.1 to 0.5 | 0.5 to 1 | O=C(NCC1(NC2CC2)CCCCCC1)c1ccc(C#Cc2ccc(F)cn2)cc1 [Example 15, N-((1-(cyclopropylamino)cycloheptyl)methyl)-4-((5-fluoropyridin-2-yl)ethynyl)benzamide] | – | – | – | – |
| 1 to 2 | < 0.1 | O=C(NCC1CCOCC1)c1ccc(C#Cc2ccccc2F)cc1F [Example 35, 2-fluoro-4-((2-fluorophenyl)ethynyl)-N-((tetrahydro-2H-pyran-4-yl)methyl)benzamide] | – | – | – | – |
| < 0.1 | 0.5 to 1 | O=C(NCC1(NC2CC2)CCCC1)c1ccc(C#Cc2ccc(F)cc2)cc1 [Example 13, N-((1-(cyclopropylamino)cyclopentyl)methyl)-4-((4-fluorophenyl)ethynyl)benzamide] | – | – | – | – |
| < 0.1 | < 0.1 | CC1(CNC(=O)c2ccc(C#Cc3ccc(F)cc3)cc2)CCCO1 (stereo not drawn) [Example 116, 4-((4-fluorophenyl)ethynyl)-N-((2-methyltetrahydrofuran-2-yl)methyl)benzamide] | – | – | – | – |
| 0.1 to 0.5 | < 0.1 | O=C(NCC1CC(F)(F)C1)c1ccc(C#Cc2ccccc2)cc1 [Example 90, N-((3,3-difluorocyclobutyl)methyl)-4-(phenylethynyl)benzamide] | – | – | – | – |
| 0.1 to 0.5 | 0.1 to 0.5 | O=C(NCC1(CC2CC2)CCOCC1)c1ccc(C#Cc2ccccc2F)cc1 [Example 29, N-((4-(cyclopropylmethyl)tetrahydro-2H-pyran-4-yl)methyl)-4-((2-fluorophenyl)ethynyl)benzamide] | – | – | – | – |
| 0.5 to 1 | 1 to 2 | O=C(NCC1(N2CCOCC2)CCC1)c1ccc(C#Cc2ccccc2F)cc1 [Example 96, 4-((2-fluorophenyl)ethynyl)-N-((1-morpholinocyclobutyl)methyl)benzamide] | – | – | – | – |
